Reference: BindingDB's records for doi:10.1016/j.bioorg.2014.07.012 (Kurukshetra University, 2014)

Columns and labels:
Cathepsin H = molecular target: T1, Cathepsin H (Capra hircus, UniProt A0A060INS8); experiment: Enzymatic activity assay; conditions: pH 6; 37 °C
T1 sequence (A0A060INS8 whole entry): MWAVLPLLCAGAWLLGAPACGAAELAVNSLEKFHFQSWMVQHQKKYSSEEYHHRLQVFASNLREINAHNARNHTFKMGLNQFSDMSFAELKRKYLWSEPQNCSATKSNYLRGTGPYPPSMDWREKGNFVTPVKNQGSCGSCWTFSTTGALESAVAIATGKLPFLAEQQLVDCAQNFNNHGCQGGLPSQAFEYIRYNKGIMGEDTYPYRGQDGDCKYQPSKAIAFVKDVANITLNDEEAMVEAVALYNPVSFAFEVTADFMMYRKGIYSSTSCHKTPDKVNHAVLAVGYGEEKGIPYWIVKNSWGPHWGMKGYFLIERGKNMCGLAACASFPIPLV
Procedure: (§1) Enzyme was equilibrated in 0.1 M phosphate buffer, pH 6.0 at 37 °C. All compounds were prepared in DMSO. Various concentrations of compounds were added in the reaction mixture separately. The reactions were incubated for 30 min and the activity was estimated by the usual enzyme assay at pH 6.0 using a-N-benzoyl-D,L-arginine-2-naphthylamide (BANA) as substrate.

Cathepsin B = Cathepsin B (Capra hircus, UniProt H9B8T9); experiment: Enzymatic activity assay; conditions: pH 6; 37 °C
Procedure: as §1

SMILES	Ki (Cathepsin H) [nM]	Ki (Cathepsin B) [nM]
O=C(c1ccccc1)N1N=C(c2ccccc2)CC1c1ccccc1 (stereo not given) [N-benzoyl-3,5-diphenylpyrazoline (2a)]	3200	1150
O=C(c1ccccc1)N1N=C(c2ccccc2)CC1c1ccccc1Cl (stereo not given) [N-benzoyl-5-(-2'-chlorophenyl)-3-phenylpyrazoline (2b)]	1890	775
COc1ccccc1C1CC(c2ccccc2)=NN1C(=O)c1ccccc1 (stereo not given) [N-benzoyl-5-(-2'-methoxyphenyl)-3-phenylpyrazoline (2e)]	9650	4900
O=C(c1ccccc1)N1N=C(c2ccccc2)CC1c1ccccc1[N+](=O)[O-] (stereo not given) [N-benzoyl-5-(-2'-nitrophenyl)-3-phenylpyrazoline (2h)]	1440	572
O=C(c1ccccc1)N1N=C(c2ccccc2)CC1c1cccc(Cl)c1 (stereo not given) [N-benzoyl-5-(-3'-chlorophenyl)-3-phenylpyrazoline (2c)]	1810	677
COc1cccc(C2CC(c3ccccc3)=NN2C(=O)c2ccccc2)c1 (stereo not given) [N-benzoyl-5-(-3'-methoxyphenyl)-3-phenylpyrazoline (2f)]	5030	1590
O=C(c1ccccc1)N1N=C(c2ccccc2)CC1c1cccc([N+](=O)[O-])c1 (stereo not given) [N-benzoyl-5-(-3'-nitrophenyl)-3-phenylpyrazoline (2i)]	980	195
O=C(c1ccccc1)N1N=C(c2ccccc2)CC1c1ccc(Cl)cc1 (stereo not given) [N-benzoyl-5-(-4'-chlorophenyl)-3-phenylpyrazoline (2d)]	3010	925
COc1ccc(C2CC(c3ccccc3)=NN2C(=O)c2ccccc2)cc1 (stereo not given) [N-benzoyl-5-(-4'-methoxyphenyl)-3-phenylpyrazoline (2g)]	4100	1280
O=C(c1ccccc1)N1N=C(c2ccccc2)CC1c1ccc([N+](=O)[O-])cc1 (stereo not given) [N-benzoyl-5-(-4'-nitrophenyl)-3-phenylpyrazoline (2j)]	1270	287
COc1ccccc1C1CC(c2ccccc2)=NN1C=O (stereo not given) [N-formyl-5-(-2'-methoxyphenyl)-3-phenylpyrazoline (1e)]	387	66.8
COc1cccc(C2CC(c3ccccc3)=NN2C=O)c1 (stereo not given) [N-formyl-5-(-3'-methoxyphenyl)-3-phenylpyrazoline (1f)]	272	45.5
COc1ccc(C2CC(c3ccccc3)=NN2C=O)cc1 (stereo not given) [N-formyl-5-(-4'-methoxyphenyl)-3-phenylpyrazoline (1g)]	221	44.8

These reach a lower Ki (Cathepsin H). Values come first.

Ki (Cathepsin H) [nM]	Ki (Cathepsin B) [nM]	SMILES
174	22.7	O=CN1N=C(c2ccccc2)CC1c1ccccc1 (stereo not given) [N-formyl-3,5-diphenylpyrazoline (1a)]
137	21.1	O=CN1N=C(c2ccccc2)CC1c1ccc(Cl)cc1 (stereo not given) [N-formyl-5-(-4'-chlorophenyl)-3-phenylpyrazoline (1d)]
135	18	O=CN1N=C(c2ccccc2)CC1c1ccccc1Cl (stereo not given) [N-formyl-5-(-2'-chlorophenyl)-3-phenylpyrazoline (1b)]
130	14.6	O=CN1N=C(c2ccccc2)CC1c1cccc(Cl)c1 (stereo not given) [N-formyl-5-(-3'-chlorophenyl)-3-phenylpyrazoline (1c)]
96.3	14.1	O=CN1N=C(c2ccccc2)CC1c1ccccc1[N+](=O)[O-] (stereo not given) [N-formyl-5-(-2'-nitrophenyl)-3-phenylpyrazoline (1h)]
58	11.3	O=CN1N=C(c2ccccc2)CC1c1ccc([N+](=O)[O-])cc1 (stereo not given) [N-formyl-5-(-4'-nitrophenyl)-3-phenylpyrazoline (1j)]
51.9	1.1	O=CN1N=C(c2ccccc2)CC1c1cccc([N+](=O)[O-])c1 (stereo not given) [N-formyl-5-(-3'-nitrophenyl)-3-phenylpyrazoline (1i)]
